Results on five molecules are retold here after patent publication US4205163A, “Tylosin derivatives” (Sanraku-Ocean Co., Ltd., priority 1977, dated 1980).

Converted amounts (≈) assume the structure as drawn. Like-named read-outs stand apart in the source and are kept apart here.

Data set [1] deals with Mycoplasma gallisepticum KP-13. Put plainly: antibacterial activity against Mycoplasma. It counts as cell-based. Conditions: Mycoplasmoides gallisepticum, KP13. From the text: (§1) Furthermore the new antibiotics according to the present invention also show antimicrobial activity on Mycoplasma. In particular, it is noteworthy that they have much higher antimicrobial activity than tylosin on Mycoplasma that is resistant to macrolide antibiotics. Tab.
(§2) **Medium (Eiken PPLO Medium)

For data set [2], the system named is Mycoplasma gallisepticum E-11. Put plainly: antibacterial activity against Mycoplasma. Format: cell-based. Particulars: Mycoplasmoides gallisepticum, E11.
From the text: as §1
(§3) *Macrolide resistant strain
as §2

The test system of data set [3] is Mycoplasma gallisepticum E-5. Put plainly: antibacterial activity against Mycoplasma. Format: cell-based. Conditions: Mycoplasmoides gallisepticum, E5.
From the text: as §1, §3, §2

The test system of data set [4] is Mycoplasma gallisepticum A-72. Put plainly: antibacterial activity against Mycoplasma. It counts as cell-based. Conditions: Mycoplasmoides gallisepticum, A72; strain A-72, macrolide resistant; Eiken PPLO Medium.
From the text: as §1, §3, §2

Data set [5] in a line: toxicity in chickens, mixed with feed for a month. Format: in vivo. Conditions: mixed with feed at 0.3%. From the text:
3-Acetyl-4"-D-(α-hydroxyphenylacetyl)tylosin, 4"-phenylthioacetyltylosin and 4"-benzenesulfonylacetyltylosin, selected as the representative compounds according to the present invention, were mixed with feed at a ratio of 0.3%, respectively and given to chickens for a month.

The nature of a further data set: in vivo. Conditions: mouse, po, 100 mg/kg.
Data set [6] concerns Streptococcus pyogenes MH-771. Put plainly: antimicrobial activity, broth dilution method. Format: cell-based. Particulars: Streptococcus pyogenes. The method in brief: (§4)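 Activity was measured by broth dilution against each strain. S. aureus MS-8710 is a clinical isolate resistant to tylosin, penicillin, tetracycline, erythromycin and leucomycin. The S. pyogenes strain is a clinical isolate resistant to tylosin, erythromycin, oleandomycin and leucomycin.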
In general terms: Broth dilution looks for growth in wells or tubes with falling amounts of substance.

Data set [7] concerns Staphylococcus aureus MS-9937. Put plainly: antimicrobial activity, broth dilution method. Format: cell-based. The method in brief: as §4
The subject of data set [8] is Staphylococcus aureus MS-9931. Put plainly: antimicrobial activity, broth dilution method. It counts as cell-based. The method in brief: as §4
Data set [9] concerns Staphylococcus aureus SMITH. Put plainly: antimicrobial activity, broth dilution method. It counts as cell-based. Particulars: Staphylococcus aureus, read-out: minimum inhibitory concentration (MIC). The method in brief: as §4
For the next data set, the system named is Sarcina lutea ATCC 9341. Put plainly: antimicrobial activity, broth dilution method. Format: cell-based. Conditions: Micrococcus luteus, ATCC9341, Sarcina lutea ATCC 9341, read-out: minimum inhibitory concentration (MIC). The method in brief:
as §4

The subject of data set [10] is Bacillus cereus ATCC 9634. Put plainly: antimicrobial activity, broth dilution method. It counts as cell-based. Particulars: Bacillus cereus. The method in brief: as §4
Data set [11] concerns Staphylococcus aureus MS-8710. Put plainly: antimicrobial activity, broth dilution method. It counts as cell-based. Conditions: Staphylococcus aureus. The method in brief:
as §4

The test system of data set [12] is Staphylococcus aureus FDA-209P. Put plainly: antimicrobial activity, broth dilution method. Conditions: Staphylococcus aureus, FDA209P, read-out: minimum inhibitory concentration (MIC). It counts as cell-based. The method in brief:
as §4

The mark [13] stands for this setting: strain KP-13, Eiken PPLO Medium, read-out: MIC.
Setting [14] is: strain E-11, macrolide resistant, Eiken PPLO Medium, read-out: MIC.
Setting [15] is: strain E-5, macrolide resistant, Eiken PPLO Medium, read-out: MIC.
Setting [16] is: MH771, Streptococcus pyogenes MH-771, drug-resistant clinical isolate, read-out: minimum inhibitory concentration (MIC).
[17] abbreviates: MS9937, Staphylococcus aureus MS-9937, drug-resistant clinical isolate, read-out: minimum inhibitory concentration (MIC).
The mark [18] stands for this setting: MS9931, Staphylococcus aureus MS-9931, drug-resistant clinical isolate, read-out: minimum inhibitory concentration (MIC).
Where [19] appears, read: Staphylococcus aureus SMITH, broth dilution.
Setting [20] is: ATCC9634, Bacillus cereus ATCC 9634, broth dilution, read-out: minimum inhibitory concentration (MIC).
[21] abbreviates: MS8710, Staphylococcus aureus MS-8710, drug-resistant clinical isolate, read-out: minimum inhibitory concentration (MIC).
Where [22] appears, read: Staphylococcus aureus FDA-209P, broth dilution.

Method for in vivo: The new antibiotics according to the present invention were each orally administered to mice at a dose of 100 mg/kg. Each blood level was then measured and compared with those of tylosin and 3-acetyltylosin.

Regarding `CCC1OC(=O)CC(OC(C)=O)C(C)C(OC2OC(C)C(OC3CC(C)(O)C(OC(=O)C(O)c4ccccc4)C(C)O3)C(N(C)C)C2O)C(CC=O)CC(C)C(=O)C=CC(C)=CC1COC1OC(C)C(O)C(OC)C1OC` [Compound 17, 3-acetyl-4"-D-(α-hydroxyphenylacetyl)tylosin], the MIC in [1] (setting [13]) was 0.157 µg/mL (≈ 0.144 µM); in data set [2] (setting [14]), 0.625 µg/mL (≈ 0.572 µM); in data set [3] (setting [15]), 0.625 µg/mL (≈ 0.572 µM); in [4] it was 0.313 µg/mL (≈ 0.287 µM); in data set [6] (setting [16]), 6.25 µg/mL (≈ 5.72 µM); in [7] (setting [17]) it was 12.5 µg/mL (≈ 11.4 µM). Also, in data set [8] (setting [18]), the MIC came out at 12.5 µg/mL (≈ 11.4 µM). For the same molecule, the toxicity result in data set [5] was “No toxicity was observed”. This molecule also came in with a concentration at 1 h in the data set “in vivo” of 10000 ng/mL. In “in vivo”, the concentration at 3 h came out at 2000 ng/mL.

Turning to `CCC1OC(=O)CC(O)C(C)C(OC2OC(C)C(OC3CC(C)(O)C(OC(=O)CCc4ccccc4)C(C)O3)C(N(C)C)C2O)C(CC=O)CC(C)C(=O)C=CC(C)=CC1COC1OC(C)C(O)C(OC)C1OC` (stereo not drawn) [Compound 24, 4"-β-phenylpropionyltylosin], the MIC in data set [1] (setting [13]) amounted to 0.078 µg/mL (≈ 0.0744 µM); in data set [2] (setting [14]), 0.313 µg/mL (≈ 0.299 µM); in [3] (setting [15]), 0.313 µg/mL (≈ 0.299 µM); in data set [4] it was 0.157 µg/mL (≈ 0.15 µM); in [9] (setting [19]), 0.39 µg/mL (≈ 0.372 µM); in data set [6] (setting [16]), 25 µg/mL (≈ 23.8 µM). Moreover, the MIC in the data set with Sarcina lutea ATCC 9341 stood at 0.19 µg/mL (≈ 0.181 µM); in [10] (setting [20]) it was 0.78 µg/mL (≈ 0.744 µM); in data set [7] (setting [17]), 25 µg/mL (≈ 23.8 µM); in data set [11] (setting [21]) it was 12.5 µg/mL (≈ 11.9 µM); in [8] (setting [18]), 12.5 µg/mL (≈ 11.9 µM); in data set [12] (setting [22]) it was 0.78 µg/mL (≈ 0.744 µM). The molecule also had a concentration at 1 h in “in vivo” of 12000 ng/mL. Further, the concentration at 3 h in the data set “in vivo” worked out at 2000 ng/mL.

`CCC1OC(=O)CC(O)C(C)C(OC2OC(C)C(OC3CC(C)(O)C(OC(=O)CSc4ccccc4)C(C)O3)C(N(C)C)C2O)C(CC=O)CC(C)C(=O)C=CC(C)=CC1COC1OC(C)C(O)C(OC)C1OC` (stereo not drawn) [Compound 34, 4"-phenylthioacetyltylosin]: the MIC was found to be 0.019 µg/mL (≈ 0.0178 µM) in data set [1] (setting [13]); 0.078 µg/mL (≈ 0.0731 µM) in data set [2] (setting [14]); 0.078 µg/mL (≈ 0.0731 µM) in data set [3] (setting [15]); 0.078 µg/mL (≈ 0.0731 µM) in data set [4]; 0.39 µg/mL (≈ 0.366 µM) in data set [9] (setting [19]); 6.25 µg/mL (≈ 5.86 µM) in data set [6] (setting [16]). In addition, the MIC with Sarcina lutea ATCC 9341 was found to be 0.19 µg/mL (≈ 0.178 µM); in data set [10] (setting [20]), 0.39 µg/mL (≈ 0.366 µM); in data set [7] (setting [17]), 12.5 µg/mL (≈ 11.7 µM); in [11] (setting [21]), 6.25 µg/mL (≈ 5.86 µM); in [8] (setting [18]), 12.5 µg/mL (≈ 11.7 µM); in data set [12] (setting [22]), 0.39 µg/mL (≈ 0.366 µM). Further, the toxicity result in [5] is “No toxicity was observed”.

`CCC1OC(=O)CC(O)C(C)C(OC2OC(C)C(OC3CC(C)(O)C(OC(=O)CS(=O)(=O)c4ccccc4)C(C)O3)C(N(C)C)C2O)C(CC=O)CC(C)C(=O)C=CC(C)=CC1COC1OC(C)C(O)C(OC)C1OC` (stereo not drawn) [Compound 43, 4"-benzenesulfonylacetyltylosin]: the MIC in [1] (setting [13]) was found to be 0.019 µg/mL (≈ 0.0173 µM); in [2] (setting [14]), 0.078 µg/mL (≈ 0.071 µM); in data set [3] (setting [15]), 0.078 µg/mL (≈ 0.071 µM); in [4], 0.039 µg/mL (≈ 0.0355 µM); in data set [9] (setting [19]) it was 0.78 µg/mL (≈ 0.71 µM); in [6] (setting [16]), 3.13 µg/mL (≈ 2.85 µM). Further, the MIC was 0.39 µg/mL (≈ 0.355 µM) with Sarcina lutea ATCC 9341; 0.78 µg/mL (≈ 0.71 µM) in data set [10] (setting [20]); 6.25 µg/mL (≈ 5.69 µM) in data set [7] (setting [17]); 6.25 µg/mL (≈ 5.69 µM) in data set [11] (setting [21]); 6.25 µg/mL (≈ 5.69 µM) in data set [8] (setting [18]); 0.78 µg/mL (≈ 0.71 µM) in [12] (setting [22]). The toxicity entry in data set [5] is given as “No toxicity was observed”.

What is called Cmax is the maximum level reached in the sampled fluid or tissue. For the molecule `CC[C@H]1OC(=O)C[C@@H](O)[C@H](C)[C@@H](O[C@@H]2O[C@H](C)[C@@H](O[C@H]3C[C@@](C)(O)[C@@H](O)[C@H](C)O3)[C@H](N(C)C)[C@H]2O)[C@@H](CC=O)C[C@@H](C)C(=O)/C=C/C(C)=C/[C@@H]1CO[C@@H]1O[C@H](C)[C@@H](O)[C@@H](OC)[C@H]1OC` [tylosin], the MIC in data set [1] is 0.019 µg/mL (≈ 0.0207 µM); in data set [2], 2.5 µg/mL (≈ 2.73 µM); in data set [3], 2.5 µg/mL (≈ 2.73 µM); in data set [4] it was 2.5 µg/mL (≈ 2.73 µM); in data set [9], 0.39 µg/mL (≈ 0.426 µM); in data set [6] (MH771, read-out: minimum inhibitory concentration (MIC)) it was over 200 µg/mL. Also, the MIC in the data set with Sarcina lutea ATCC 9341 is 0.19 µg/mL (≈ 0.207 µM); in data set [10] (ATCC9634, read-out: minimum inhibitory concentration (MIC)), 0.78 µg/mL (≈ 0.851 µM); in data set [7] (Staphylococcus aureus, MS9937, read-out: minimum inhibitory concentration (MIC)), 100 µg/mL (≈ 109 µM); in data set [11] (MS8710, read-out: minimum inhibitory concentration (MIC)), over 200 µg/mL; in data set [8] (Staphylococcus aureus, MS9931, read-out: minimum inhibitory concentration (MIC)), 200 µg/mL (≈ 218 µM); in data set [12], 0.39 µg/mL (≈ 0.426 µM). The same molecule returned a maximum concentration (Cmax) in “in vivo” of at most 1000 ng/mL.
